Data taken from patent US20120252855A1, “Methods For Treating Degenerative Diseases/Injuries” (priority 2003, published 2012).

Experiments:
[1] = system: early CD34+ progenitor cells from human bone marrow; experiment: CD34+ Progenitor Cell Proliferation Assay; type: cell-based
Experimental: Compounds are tested for their ability in stimulating the survival and proliferation of early CD34+ progenitor cells from human bone marrow. In this assay, purified human CD34+ progenitor cells are incubated in liquid culture with test compounds for up to 7 days and the number of cells expressing the early stem cell marker CD34 are then measured by flow cytometry and compared to untreated cells (see Liu et al. Bone Marrow Transplantation. 24:247-52, 1999).

[2] = system: Human marrow progenitor CD34+ cells; experiment: CD34+ Progenitor Cell Proliferation Assay Experiment 2; type: cell-based
Experimental: Human marrow progenitor CD34+ cells were washed in SFEM, counted and brought to 2×10^5/mL in 24-well plates and incubated for 7 days in the presence of compound or rhTpo. Dilutions of 3′-{N′-[1-(3,4-Dimethylphenyl)-3-methyl-5-oxo-1,5-dihydropyrazol-4-ylidene]hydrazino}-2′-hydroxybiphenyl-3-carboxylic acid bis-(monoethanolamine) were made in distilled water to equal 0, 0.3, 1 and 3 uM final concentration. Dilutions of 3-{N′-[1-(3,4-dimethylphenyl)-3-methyl-5-oxo-1,5-dihydropyrazol-4-ylidene]hydrazino}-2-hydroxy-3′-tetrazol-5-ylbiphenyl disodium salt were made in DMSO to equal 0, 0.3, 1 and 3 uM final concentration in 0.1% DMSO. Recombinant human TPO at a final concentration of 100 ng/mL was used as a positive control. At day 7, cells were counted and flow cytometry was performed using FITC-CD34.

With `CC1=NN(c2ccc(C(F)(F)F)cc2)C(=O)C1=NNc1cccc(-c2cccc(C(=O)O)c2)c1O` [3′-{N′-[3-methyl-5-oxo-1-(4-trifluoromethylphenyl)-1,5-dihydropyrazol-4-ylidene]hydrazino}-2′-hydroxybiphenyl-3-carboxylic acid] the “increase in the number of CD34+ cells in liquid culture over vehicle controls” value ([1]; compound at 3 uM, days 2, 5 and 7, flow cytometry) was “up to 2 fold”.
For `CC1=NN(c2ccc(C)c(C)c2)C(=O)C1=NNc1cccc(-c2cccc(-c3nnn[nH]3)c2)c1O.[Na].[Na]` [3-{N′-[1-(3,4-dimethylphenyl)-3-methyl-5-oxo-1,5-dihydropyrazol-4-ylidene]hydrazino}-2-hydroxy-3′-tetrazol-5-ylbiphenyl disodium salt], the “increase in the number of CD34+ cells” value ([2]; compound at 3 uM in 0.1% DMSO, 7 days, FITC-CD34 flow cytometry) was 3.6 fold.
For `CC1=NN(c2ccc(C)c(C)c2)C(=O)C1=NNc1cccc(-c2cccc(C(=O)O)c2)c1O.NCCO.NCCO` [3′-{N′-[1-(3,4-Dimethylphenyl)-3-methyl-5-oxo-1,5-dihydropyrazol-4-ylidene]hydrazino}-2′-hydroxybiphenyl-3-carboxylic acid bis-(monoethanolamine)], the “increase in the number of CD34+ cells” value ([2]; compound at 3 uM, dilutions in distilled water, 7 days, FITC-CD34 flow cytometry) was 3 fold.
In the case of “rhTpo: Recombinant human TPO, used as a positive control at 100 ng/mL”, the “increase in the number of CD34+ cells” value ([1]; rhTpo 100 ng/ml, same experiment as E1) was 2 fold, the “increase in the number of CD34+ cells” value ([2]; rhTpo 100 ng/ml positive control, experiment with the bis-(monoethanolamine) salt, day 7) was 15 fold and the “increase in the number of CD34+ cells” value ([2]; rhTpo 100 ng/ml positive control, experiment with the tetrazole disodium salt, day 7) was 3.4 fold.
